# Read-outs that look alike come from different tables or passages of the source.
# Tests used:
# [1] = tested on: leukotriene D4-induced contraction of guinea pig terminal ileum; assay: Inhibition of contractions of guinea pig terminal ileum induced with leukotriene D4; design: species or system guinea pig (male Hartly); details: 1 nM LTD4; 2 min incubation; indomethacin 3 μM, atropin 0.3 μM; 37° C
# Protocol: The inhibition of contractions of guinea pig terminal ileum induced with leukotriene D4.
# Segments of male Hartly guinea pig terminal ileus were mounted under 750 mg tension in a 10 ml organ bath containing a Tyrode solution. To eliminate instrinsic prostaglandin and cholinergic responses, indomethacin (3 μM) and atropin (0.3 μM) were incorporated into bathing solution under continuous aeration at 37° C. […] measurements were made with an isotonic transducer and recorded on a multipen-recorder. After an equilibration period of 30-60 minutes, isotonic responses were 1 nm LTD4 were recorded until reproducible responses obtained. The submaximal contraction induced by 1 nM LTD4 served as control. Test compounds were dissolved in ethanol (0.1% final concentration) and incubated at various concentrations for 2 minutes before contractions were induced with 1 nM LTD4. The inhibition of contraction was calculated relative to the preceding control contraction. The inhibitory concentration (IC50, g/ml) were calculated graphically.
# [2] = tested on: bronchoconstriction in guinea pigs induced with leukotriene D4; assay: Bronchoconstriction in guinea pigs induced with leukotriene D4; assay type: in vivo, guinea pig (female Hartley); details: Cavia porcellus
# Protocol: Actions of bronchoconstriction in guinea pigs induced with leukotriene D4.
# Resistance to lung inflation was measured by the overflow method of Konzett and Rossler (Naunyn Schmiedebergs Arch. Exp. pathol. Pharmakol., 195, 71-74, 1940), modified by the use of an air pressure transducer. Female Hartley guinea pigs (350-450 g) were anesthetized with urethane (1.5 g/kg, i.p.). An endotracheal tube was inserted in the trachea and connected to an air pump (Matsushita Denko Co., Ltd.) with an exhaust relay of 50 strokes/minutes (PK-0305-NC, Takasago Electric, Inc.). The animals were artificially ventilated at a constant volume (3-4 ml). Tracheal pressure was recorded with a side-arm of the cannula connected to a pressure transducer (MFP-1, Nihon Kohden Kogyo Co., Ltd.). Test compounds or vehicles were administered i.v. (0.03 ml/100 g) 5 minutes or p.o. (0.5 ml/100 g) 1 hour prior to the intraveneous injection of LT04 (1 μg/kg). All compounds were injected through the cannulated jugular vein. The peak bronchoconstriction of each animal was determined as the percentage of the maximal pressure obtained by clamping off the trachea at the end of each experiment.
# The inhibitory effect of the test compounds were expressed as follows: % of inhibition=(1-T/C)×100 wherein T and C are the average peak bronchoconstrictions for the compounds of the present invention and the vehicle, respectively.
# The 50% effective doses (ED50, mg/kg) were calculated graphically.
# [3] = Acute toxicity; details: mouse, in vivo, single administration, after 10 days, Litchfield-Wilcoxon
# Protocol: EXPERIMENT EXAMPLE 3: ACUTE TOXICITY
# The compound of Example 1 of the present invention was intraveneously (iv) or orally (po) administered to a group of male ddy mice once. After 10 days, the LD50 values were determined by the Litchfield-Wilcoxon method.
# [4] = 5 min, iv, 5 minutes prior to LTD4 (1 μg/kg i.v.), read-out: Action of Bronchoconstriction in guinea pigs induced with LTD4 [ED50 (mg/kg)] iv
# [5] = po, 1 hour prior to LTD4 (1 μg/kg i.v.), read-out: Action of Bronchoconstriction in guinea pigs induced with LTD4 [ED50 (mg/kg)] po
Compound,The inhibition of contractions of guinea pig terminal ileum induces with LTD4 [IC50 (g/ml)] [1] [g/mL],"ED50 [2, 4] [mg/kg]","ED50 [2, 5] [mg/kg]","LD50 at 240 h ([3]; iv, read-out: LD50 (mg/kg), iv) [mg/kg]","LD50 at 240 h ([3]; po, read-out: LD50 (mg/kg), po) [mg/kg]"
"CCC(CC)(CC(=O)Nc1cccc(/C=C/c2cccc(COCCCCc3ccccc3)n2)c1)C(=O)O [Compound A, 2-[(E)-2-(3-(3-carboxy-3-ethylvalerylamino)phenyl)ethenyl]-6-(4-phenylbutoxy)methylpyridine 1/2 hydrate]",2.2e-09,0.037,1.3,–,–
"CCCCc1ccc(CCCCOCc2cccc(/C=C/c3cccc(NC(=O)CC(CC)(CC)C(=O)O)c3)n2)cc1 [Compound B, 2-[(E)-2-(3-(3-carboxy-3-ethylvalerylamino)phenyl)ethenyl]-6-[4-(4-butylphenyl)butoxy]methylpyridine]",1.1e-10,0.0054,0.8,–,–
"CCC(CC)(CC(=O)Nc1cccc(/C=C/c2cccc(COCCCCc3ccc(F)cc3)n2)c1)C(=O)O [Compound C, 2-[(E)-2-(3-(3-carboxy-3-ethylvalerylamino)phenyl)ethenyl]-6-[4-(4-fluorophenyl)butoxy]methylpyridine 1/2 hydrate]",2.5e-09,0.03,0.7,–,–
"CCc1ccc(CCCCOCc2cccc(/C=C/c3cccc(NC(=O)CC(CC)(CC)C(=O)O)c3)n2)cc1 [Compound D, 2-[(E)-2-(3-(3-carboxy-3-ethylvalerylamino)phenyl)ethenyl]-6-[4-(4-ethylphenyl)butoxy]methylpyridine]",6.6e-11,0.0023,1,–,–
"CCCc1ccc(CCCCOCc2cccc(/C=C/c3cccc(NC(=O)CC(CC)(CC)C(=O)O)c3)n2)cc1 [Compound E, 2-[(E)-2-(3-(3-carboxy-3-ethylvalerylamino)phenyl)ethenyl]-6-[4-(4-propylphenyl)butoxy]methylpyridine 1/4 hydrate]",6e-10,0.006,1.9,–,–
"CCC(CC)(CC(=O)Nc1cccc(/C=C/c2cccc(COCCCCc3ccc(C(C)C)cc3)n2)c1)C(=O)O [Compound F, 2-[(E)-2-(3-(3-carboxy-3-ethylvalerylamino)phenyl)ethenyl]-6-[4-(4-isopropylphenyl)butoxy]methylpyridine]",4e-10,0.014,2.2,–,–
"CCC(CC)(CC(=O)Nc1cccc(/C=C/c2cccc(COCCCCc3ccc(CC(C)C)cc3)n2)c1)C(=O)O [Compound G, 2-[(E)-2-(3-(3-carboxy-3-ethylvalerylamino)phenyl)ethenyl]-6-[4-(4-isobutylphenyl)butoxy]methylpyridine]",3.6e-10,0.0012,1.6,–,–
"CCOc1ccc(CCCCOCc2cccc(/C=C/c3cccc(NC(=O)CC(CC)(CC)C(=O)O)c3)n2)cc1 [Compound H, 2-[(E)-2-(3-(3-carboxy-3-ethylvalerylamino)phenyl)ethenyl]-6-[4-(4-ethoxyphenyl)butoxy]methylpyridine]",1.8e-10,0.01,2,–,–
"CCCOc1ccc(CCCCOCc2cccc(/C=C/c3cccc(NC(=O)CC(CC)(CC)C(=O)O)c3)n2)cc1 [Compound I, 2-[(E)-2-(3-(3-carboxy-3-ethylvalerylamino)phenyl)ethenyl]-6-[4-(4-propoxyphenyl)butoxy]methylpyridine]",7.6e-11,0.0023,2.5,–,–
"CCCCOc1ccc(CCCCOCc2cccc(/C=C/c3cccc(NC(=O)CC(CC)(CC)C(=O)O)c3)n2)cc1 [Compound J, 2-[(E)-2-(3-(3-carboxy-3-ethylvalerylamino)phenyl)ethenyl]-6-[4-(4-butoxyphenyl)butoxy]methylpyridine 3/2 hydrate]",9e-11,0.0046,0.46,–,–
"CCC(CC)(CC(=O)Nc1cccc(/C=C/c2cccc(COCCCCc3ccc(OCCC(C)C)cc3)n2)c1)C(=O)O [Compound K, 2-[(E)-2-(3-(3-carboxy-3-ethylvalerylamino)phenyl)ethenyl]-6-[4-(4-isopentyloxyphenyl)butoxy]methylpyridine 1/2 hydrate]",3.1e-10,0.0036,0.25,–,–
"CCCc1c(OCCCCc2nnn[nH]2)ccc(C(C)=O)c1O [Compound L, 1-[2-hydroxy-3-propyl-4-(4-(1H-tetrazol-5-yl)butoxy)phenyl]ethanone, reference compound]",2.5e-08,0.28,22,–,–
"CCC(CC)(CC(=O)Nc1cccc(/C=C/c2cccc(COCCCCc3ccc(C)cc3)n2)c1)C(=O)O [Example 1, 2-[(E)-2-(3-(3-carboxy-3-ethylvalerylamino)phenyl)ethenyl]-6-[4-(4-methylphenyl)butoxy]methylpyridine]",–,–,–,> 300,> 1000
